This note sets out measurements from PubChem BioAssay (NCI).

Some test systems named below: CCRF-CEM leukemia; K-562 leukemia; NCI-H23 lung; OVCAR-4 ovarian; SN12C renal; U251 CNS; UACC-257 melanoma; UACC-62 melanoma; HCT-116 colon.
What all share (experiment): growth of human tumour cells (NCI), 48 h

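Cultured in 96-well plates, cells were exposed to test compound for 48 hours across five concentrations. Abbreviation: GI50, concentration required for 50% inhibition of growth. TGI is the concentration that stops growth completely.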

As to `CC(C)(C)C(=O)Nc1cccc2oc(-c3ccccc3)cc12`, the TGI with CCRF-CEM leukemia, with K-562 leukemia, with NCI-H23 lung, in the test with OVCAR-4 ovarian, in the test with SN12C renal and in the test on U251 CNS was above 100 µM throughout. Further, the TGI in the test on UACC-257 melanoma and with UACC-62 melanoma was above 100 µM throughout.
Consider `O=C(OCCCl)C1OC(n2cc(F)c(=O)[nH]c2=O)CC1O` (stereo not drawn), for which the TGI with CCRF-CEM leukemia, with HCT-116 colon, in the test with K-562 leukemia, in the test on NCI-H23 lung, in the test with OVCAR-4 ovarian and with SN12C renal was above 100 µM in each case. Besides, the TGI in the test with U251 CNS, with UACC-257 melanoma and in the test on UACC-62 melanoma was above 100 µM throughout.
As to `CC(C)(C)c1cc(CCCCCCCC2(CCCCCCCc3cc(C(C)(C)C)cc(C(C)(C)C)c3)OC(COCCOCCCCCC#N)C(COCCOCCCCCC#N)O2)cc(C(C)(C)C)c1` (stereo not drawn), the TGI in the test with CCRF-CEM leukemia, in the test on HCT-116 colon, in the test on K-562 leukemia, in the test with NCI-H23 lung, in the test on OVCAR-4 ovarian and in the test on SN12C renal was above 100 µM in each case. For the same molecule, the TGI with U251 CNS, in the test on UACC-257 melanoma and in the test with UACC-62 melanoma was above 100 µM each time.
Regarding `Cc1ccc(/C=C(\NC(=O)c2ccccc2)c2nc3ccccc3[nH]2)cc1`, the TGI in the test with HCT-116 colon, in the test on NCI-H23 lung, in the test with OVCAR-4 ovarian, with SN12C renal, in the test on U251 CNS and in the test on UACC-257 melanoma was above 100 µM each time. Besides, the TGI with UACC-62 melanoma is above 100 µM.
For `Cc1ccc(NC(=O)CC/C(CC(=O)C(C)(C)C)=N\NC(=O)C[n+]2ccccc2)cc1C`, the TGI in the test with CCRF-CEM leukemia, with HCT-116 colon, with K-562 leukemia, in the test with NCI-H23 lung, in the test on OVCAR-4 ovarian and with SN12C renal was above 100 µM each time. The TGI with U251 CNS, in the test on UACC-257 melanoma and in the test with UACC-62 melanoma was above 100 µM in each case.
In the case of `O=C(Cc1nc2ccccc2o1)C(=O)Nc1cccc(Cl)c1`, the TGI with CCRF-CEM leukemia, in the test with HCT-116 colon, in the test on K-562 leukemia, in the test on NCI-H23 lung, in the test with OVCAR-4 ovarian and with SN12C renal was above 100 µM in each case. The TGI with U251 CNS, in the test on UACC-257 melanoma and with UACC-62 melanoma was above 100 µM each time.
As for `NC1CCCCC1N.O=C1C=C/C(=C(/c2ccc(O)c(Br)c2)c2ccccc2S(=O)(=O)[O-])C=C1Br.O=C1C=C/C(=C(/c2ccc(O)c(Br)c2)c2ccccc2S(=O)(=O)[O-])C=C1Br.[Pt+4]`, the GI50 in the test on HCT-116 colon is 0.79 µM; in the test with K-562 leukemia it was 8.79 µM; in the test with NCI-H23 lung, 2.88 µM; in the test on OVCAR-4 ovarian, 2.35 µM; in the test on SN12C renal, 3.59 µM; with U251 CNS it was 5.21 µM. Further, the GI50 in the test with UACC-257 melanoma is 5.38 µM; in the test with UACC-62 melanoma, 9.45 µM. Moreover, the TGI in the test with HCT-116 colon, in the test with K-562 leukemia, with NCI-H23 lung, in the test on OVCAR-4 ovarian, in the test on SN12C renal and with U251 CNS was above 100 µM in each case. For the same molecule, the TGI with UACC-257 melanoma and with UACC-62 melanoma was above 100 µM in each case.
On to `O=C(N/C(=C\c1cccc([N+](=O)[O-])c1)c1nc2ccccc2[nH]1)c1ccccc1`, for which the TGI with CCRF-CEM leukemia, with HCT-116 colon, in the test on K-562 leukemia, in the test on NCI-H23 lung, with OVCAR-4 ovarian and in the test on SN12C renal was above 100 µM in each case. In addition, the TGI in the test on U251 CNS, with UACC-257 melanoma and in the test with UACC-62 melanoma was above 100 µM throughout.
Turning to `NS(=O)(=O)c1ccc(NC(=O)Cc2nc3ccccc3s2)cc1`, the TGI in the test on CCRF-CEM leukemia came to 47.3 µM; in the test on HCT-116 colon, 31 µM; with K-562 leukemia, 59.4 µM; with NCI-H23 lung, 29.5 µM; in the test with OVCAR-4 ovarian, 34.9 µM; in the test with SN12C renal, 30.9 µM. The values for the TGI with U251 CNS, with UACC-257 melanoma and in the test on UACC-62 melanoma were 28.5 µM, 29.6 µM and 29.4 µM, respectively.
On to `CC1=NN(C(=O)Nc2ccc(Cl)cc2)C(=O)C2CCC(=O)N12` (stereo not drawn), for which the TGI in the test on CCRF-CEM leukemia, in the test with HCT-116 colon, in the test on K-562 leukemia, with NCI-H23 lung, with OVCAR-4 ovarian and in the test on SN12C renal was above 100 µM throughout. Further, the TGI in the test on U251 CNS, in the test with UACC-257 melanoma and in the test on UACC-62 melanoma was above 100 µM in each case.
`c1ccncc1`: the TGI in the test with CCRF-CEM leukemia, in the test on HCT-116 colon, in the test on K-562 leukemia, in the test with NCI-H23 lung, in the test on OVCAR-4 ovarian and in the test with SN12C renal was above 100 µM in each case. Besides, the TGI in the test on U251 CNS, in the test on UACC-257 melanoma and in the test on UACC-62 melanoma was above 100 µM each time.
Regarding `CCN(CC)CC(C)C(=O)/C=C/c1ccc(C)cc1` (stereo not drawn), the TGI with CCRF-CEM leukemia is 16.1 µM; in the test with HCT-116 colon, 3.16 µM; in the test on K-562 leukemia, above 100 µM; with NCI-H23 lung, 19.9 µM; with OVCAR-4 ovarian, 4.26 µM; in the test on SN12C renal, 3.02 µM. In addition, the values for the TGI with U251 CNS, in the test with UACC-257 melanoma and with UACC-62 melanoma were 3.43 µM, 4.1 µM and 12.2 µM, respectively.
Regarding `N#CC(C#N)=C1CCOc2ccc(F)cc21`, the GI50 was 8.86 µM in the test with HCT-116 colon; 50.4 µM with K-562 leukemia; 14.8 µM in the test on NCI-H23 lung; 14.6 µM in the test with OVCAR-4 ovarian; 19.8 µM in the test with SN12C renal; 11.2 µM with U251 CNS. In addition, the GI50 with UACC-257 melanoma is above 100 µM; in the test with UACC-62 melanoma, 11.3 µM. Further, the TGI is 21 µM in the test with HCT-116 colon; above 100 µM in the test on K-562 leukemia; 28.7 µM in the test on NCI-H23 lung; 27.8 µM with OVCAR-4 ovarian; 40.1 µM with SN12C renal; 23.2 µM in the test with U251 CNS. The results for the TGI in the test on UACC-257 melanoma and in the test on UACC-62 melanoma were above 100 µM and 28.9 µM, respectively.
